In US8236818B2, “Substituted imidazopyridine derivatives as melanocortin-4 receptor antagonists” (Santhera Pharmaceuticals (Schweiz) AG, priority 2007, dated 2012):

Columns and labels:
[1] = target: T1, melanocortin-4 receptor (Homo sapiens, UniProt P32245); experiment: Membrane binding assay (fluorescence polarization, competition with fluorescence labeled NDP-alpha-MSH); settings: read-out: hMC-4R binding assay IC50/μM
T1 construct: expressed in transfected cells; host or cells: HEK293 cells (membrane preparations)
T1 sequence (P32245 whole entry): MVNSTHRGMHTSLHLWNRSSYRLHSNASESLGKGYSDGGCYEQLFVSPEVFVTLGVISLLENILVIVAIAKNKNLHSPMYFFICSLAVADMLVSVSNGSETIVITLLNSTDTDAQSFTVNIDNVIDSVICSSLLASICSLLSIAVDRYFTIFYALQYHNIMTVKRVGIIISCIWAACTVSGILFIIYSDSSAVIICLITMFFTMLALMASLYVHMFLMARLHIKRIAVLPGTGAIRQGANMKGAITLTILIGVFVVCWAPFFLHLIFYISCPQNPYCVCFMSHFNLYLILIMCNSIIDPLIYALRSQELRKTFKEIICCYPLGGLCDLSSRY

[2] = target: T1, melanocortin-4 receptor; experiment: Functional assay (cAMP fluorescence polarization, membrane based, agonistic activity); assay type: biochemical; settings: for Emax: 2 h, read-out: % activation functional assay; for EC50: agonistic activity, cAMP, HEK293 membrane preparations, read-out: hMC-4R functional assay EC50/μM

COc1cccc(-c2nc3ccc(C(=O)N(CCC(C)C)CCC(C)C)cn3c2CC(C)CN2CCCC2)c1 (stereo not drawn) [Example 54]
IC50 [1]: 0.1 to 1 µM | Emax [2]: 0%

CC(C)CCN(CCC(C)C)C(=O)c1ccc2nc(-c3ccccn3)c(CCCN3CCCC3)n2c1 [Example 55]
IC50 [1]: 0.1 to 1 µM | Emax [2]: 0%

CC(C)CCN(CCC(C)C)C(=O)c1ccc2nc(-c3ccncc3)c(CCCN3CCCC3)n2c1 [Example 56]
IC50 [1]: < 0.1 µM | Emax [2]: 0%

Cc1ccc(-c2nc3ccc(C(=O)N(CCC(C)C)CCC(C)C)cn3c2CCCN2CCCC2)nc1 [Example 57]
IC50 [1]: < 0.1 µM | Emax [2]: 0%

Cc1ccc(-c2nc3ccc(C(=O)N(CCC(C)C)CCC(C)C)cn3c2CCCN(C)C)nc1 [Example 58]
IC50 [1]: > 1 µM | Emax [2]: 0%

CC(C)CCN(CCC(C)C)C(=O)c1ccc2nc(-c3ccc(=O)[nH]c3)c(CCCN3CCCC3)n2c1 [Example 59]
IC50 [1]: < 0.1 µM | Emax [2]: 0%

COc1cccc(-c2nc3ccc(C(=O)N(CCC(C)C)CCC(C)C)cn3c2CCCN(C(C)C)C(C)C)c1 [Example 60]
IC50 [1]: 0.1 to 1 µM | Emax [2]: 0%

CC(C)CCN(CCC(C)C)C(=O)c1ccc2nc(-c3nccs3)c(CCCN(C)C)n2c1 [Example 61]
IC50 [1]: 0.1 to 1 µM | Emax [2]: 0%

CC(C)CCN(CCC(C)C)C(=O)c1ccc2nc(-c3cccc(=O)[nH]3)c(CCCN3CCCC3)n2c1 [Example 62]
IC50 [1]: 0.1 to 1 µM | Emax [2]: 0%

CC(C)CCN(CCC(C)C)C(=O)c1ccc2nc(-c3ccc(C(=O)N(C)C)cc3)c(CCCN3CCCC3)n2c1 [Example 63]
IC50 [1]: 0.1 to 1 µM | Emax [2]: 0%

CNC(=O)c1ccc(-c2nc3ccc(C(=O)N(CCC(C)C)CCC(C)C)cn3c2CCCN2CCCC2)cc1 [Example 64]
IC50 [1]: < 0.1 µM | Emax [2]: 0%

CC(C)CCN(CCC(C)C)C(=O)c1ccc2nc(-c3ccc(N)nc3)c(CCCN3CCCC3)n2c1 [Example 65]
IC50 [1]: < 0.1 µM | Emax [2]: 0%

CC(C)CCN(CCC(C)C)C(=O)c1ccc2nc(-c3ccc(Cl)nc3)c(CCCN(C)C)n2c1 [Example 66]
IC50 [1]: 0.1 to 1 µM | Emax [2]: 0%

CC(C)CCN(CCC(C)C)C(=O)c1ccc2nc(-c3ccc(Cl)nc3)c(CCCN3CCCC3)n2c1 [Example 67]
IC50 [1]: < 0.1 µM | Emax [2]: 0%

CC(C)CCN(CCC(C)C)C(=O)c1ccc2nc(-c3ccc(=O)[nH]c3)c(CCCN(C)C)n2c1 [Example 68]
IC50 [1]: 0.1 to 1 µM | Emax [2]: 0%

CC(C)CCN(CCC(C)C)C(=O)c1ccc2nc(-c3ncco3)c(CCCN3CCCC3C)n2c1 (stereo not drawn) [Example 69]
IC50 [1]: < 0.1 µM | Emax [2]: 0%

CC(C)CCN(CCC(C)C)C(=O)c1ccc2nc(-c3ncco3)c(CCCN3CCC[C@@H]3CO)n2c1 [Example 70]
IC50 [1]: 0.1 to 1 µM | Emax [2]: 0%

CC(C)CCN(CCC(C)C)C(=O)c1ccc2nc(-c3ncco3)c(CCCN3CC[C@@H](O)C3)n2c1 [Example 71]
IC50 [1]: 0.1 to 1 µM | Emax [2]: 0%

CC(C)CCN(CCC(C)C)C(=O)c1ccc2nc(-c3ncco3)c(CCCN3CC[C@@H](F)C3)n2c1 [Example 72]
IC50 [1]: 0.1 to 1 µM | Emax [2]: 2%

CC(C)CCN(CCC(C)C)C(=O)c1ccc2nc(-c3ncco3)c(CCCN3CC(O)C3)n2c1 [Example 73]
IC50 [1]: 0.1 to 1 µM | Emax [2]: -3%

CC(C)CCN(CCC(C)C)C(=O)c1ccc2nc(-c3ncco3)c(CCCN3CCC3)n2c1 [Example 74]
IC50 [1]: 0.1 to 1 µM | Emax [2]: 1%

CC(C)CCN(CCC(C)C)C(=O)c1ccc2nc(-c3ncco3)c(CCCN(C)C(C)C)n2c1 [Example 75]
IC50 [1]: < 0.1 µM | Emax [2]: 1%

CC(C)CCN(CCC(C)C)C(=O)c1ccc2nc(-c3ncco3)c(CCCN3CCC[C@H]3CO)n2c1 [Example 76]
IC50 [1]: 0.1 to 1 µM | Emax [2]: 4%

CC(C)CCN(CCC(C)C)C(=O)c1ccc2nc(-c3ncco3)c(CCCN3CCC(O)CC3)n2c1 [Example 77]
IC50 [1]: < 0.1 µM | Emax [2]: 4%

CC(C)CCN(CCC(C)C)C(=O)c1ccc2nc(-c3ncco3)c(CCCN3CC[C@H](F)C3)n2c1 [Example 78]
IC50 [1]: < 0.1 µM | Emax [2]: 2%

CC(C)CCN(CCC(C)C)C(=O)c1ccc2nc(-c3ccc(OCCO)nc3)c(CCCN3CCCC3)n2c1 [Example 79]
IC50 [1]: < 0.1 µM | Emax [2]: 11%

CC(C)CCN(CCC(C)C)C(=O)c1ccc2nc(-c3ncco3)c(CCCN3CC[C@H](O)C3)n2c1 [Example 80]
IC50 [1]: 0.1 to 1 µM | Emax [2]: -35% | EC50 [2]: 0.1 to 1 µM

CC(C)CCN(CCC(C)C)C(=O)c1ccc2nc(-c3ccc(=O)n(CCO)c3)c(CCCN3CCCC3)n2c1 [Example 81]
IC50 [1]: < 0.1 µM | Emax [2]: -9%

COc1ccc(-c2nc3ccc(C(=O)N(CCC(C)C)CCC(C)C)cn3c2CCCN2CCCC2)cn1 [Example 82]
IC50 [1]: < 0.1 µM | Emax [2]: -17% | EC50 [2]: < 0.1 µM

COc1ccc(-c2nc3ccc(C(=O)N(CCC(C)C)CCC(C)C)cn3c2CCCN(C)C)cn1 [Example 83]
IC50 [1]: < 0.1 µM | Emax [2]: -1%

CC(C)CCN(CCC(C)C)C(=O)c1ccc2nc(-c3ncccn3)c(CCCN3CCCC3)n2c1 [Example 84]
IC50 [1]: < 0.1 µM | Emax [2]: -8%

CC(C)CCN(CCC(C)C)C(=O)c1ccc2nc(-c3ncco3)c(CCCN3CCC[C@@H]3C)n2c1 [Example 85]
IC50 [1]: < 0.1 µM | Emax [2]: -2%

CC(C)CCN(CCC(C)C)C(=O)c1ccc2nc(-c3ncco3)c(CCCN3CCC[C@H]3C)n2c1 [Example 86]
IC50 [1]: < 0.1 µM | Emax [2]: -11%

CC(C)CCN(CCC(C)C)C(=O)c1ccc2nc(-c3cccnc3N)c(CCCN(C)C)n2c1 [Example 87]
IC50 [1]: > 1 µM | Emax [2]: 0%

CC(C)CCN(CCC(C)C)C(=O)c1ccc2nc(-c3cc[nH]c(=O)c3)c(CCCN(C)C)n2c1 [Example 88]
IC50 [1]: 0.1 to 1 µM | Emax [2]: -2%

CC(C)CCN(CCC(C)C)C(=O)c1ccc2nc(-c3cc[nH]c(=O)c3)c(CCCN3CCCC3)n2c1 [Example 89]
IC50 [1]: < 0.1 µM | Emax [2]: -25% | EC50 [2]: < 0.1 µM

CC(C)CCN(CCC(C)C)C(=O)c1ccc2nc(-c3cccnc3N)c(CCCN3CCCC3)n2c1 [Example 90]
IC50 [1]: 0.1 to 1 µM | Emax [2]: -41% | EC50 [2]: > 1 µM

CC(C)CCN(CCC(C)C)C(=O)c1ccc2nc(-c3ccc(=O)n(CCCO)c3)c(CCCN3CCCC3)n2c1 [Example 91]
IC50 [1]: 0.1 to 1 µM | Emax [2]: -29% | EC50 [2]: 0.1 to 1 µM

CC(C)CCN(CCC(C)C)C(=O)c1ccc2nc(-c3ccc(OCCCO)nc3)c(CCCN3CCCC3)n2c1 [Example 92]
IC50 [1]: 0.1 to 1 µM | Emax [2]: -31% | EC50 [2]: < 0.1 µM

CC(C)CCN(CCC(C)C)C(=O)c1ccc2nc(-c3ccc(=O)n(CC(C)O)c3)c(CCCN3CCCC3)n2c1 (stereo not drawn) [Example 93]
IC50 [1]: 0.1 to 1 µM | Emax [2]: 0%

CC(C)CCN(CCC(C)C)C(=O)c1ccc2nc(-c3ccc(OCC(C)O)nc3)c(CCCN3CCCC3)n2c1 (stereo not drawn) [Example 94]
IC50 [1]: > 1 µM | Emax [2]: -13%

COCCn1cc(-c2nc3ccc(C(=O)N(CCC(C)C)CCC(C)C)cn3c2CCCN2CCCC2)ccc1=O [Example 95]
IC50 [1]: < 0.1 µM | Emax [2]: 0%

COCCOc1ccc(-c2nc3ccc(C(=O)N(CCC(C)C)CCC(C)C)cn3c2CCCN2CCCC2)cn1 [Example 96]
IC50 [1]: < 0.1 µM | Emax [2]: 0%

CC(=O)OCCOc1ccc(-c2nc3ccc(C(=O)N(CCC(C)C)CCC(C)C)cn3c2CCCN2CCCC2)cn1 [Example 97]
IC50 [1]: < 0.1 µM | Emax [2]: 1%

CC(C)CCN(CCC(C)C)C(=O)c1ccc2nc(C3CCOCC3)c(CCCN3CCCC3)n2c1 [Example 98]
IC50 [1]: 0.1 to 1 µM | Emax [2]: -8%

CC(=O)OCCn1cc(-c2nc3ccc(C(=O)N(CCC(C)C)CCC(C)C)cn3c2CCCN2CCCC2)ccc1=O [Example 99]
IC50 [1]: < 0.1 µM | Emax [2]: 4%

CC(C)CCN(CCC(C)C)C(=O)c1ccc2nc(-c3ccc(=O)[nH]c3)c(CCCN3CCCC3C)n2c1 (stereo not drawn) [Example 100]
IC50 [1]: < 0.1 µM | Emax [2]: -22%

CC(=O)OCCn1cc(-c2nc3ccc(C(=O)N(CCC(C)C)CCC(C)C)cn3c2CCCN2CCCC2C)ccc1=O (stereo not drawn) [Example 101]
IC50 [1]: < 0.1 µM | Emax [2]: -25%

CC(=O)OCCOc1ccc(-c2nc3ccc(C(=O)N(CCC(C)C)CCC(C)C)cn3c2CCCN2CCCC2C)cn1 (stereo not drawn) [Example 102]
IC50 [1]: < 0.1 µM | Emax [2]: -15%

CC(C)CCN(CCC(C)C)C(=O)c1ccc2nc(-c3ccc(=O)n(CCO)c3)c(CCCN3CCCC3C)n2c1 (stereo not drawn) [Example 103]
IC50 [1]: < 0.1 µM | Emax [2]: -20%

CC(C)CCN(CCC(C)C)C(=O)c1ccc2nc(-c3ccc(OCCO)nc3)c(CCCN3CCCC3C)n2c1 (stereo not drawn) [Example 104]
IC50 [1]: < 0.1 µM | Emax [2]: -15%
